We go through 25 compounds from patent US11078198B2 (BRISTOL-MYERS SQUIBB COMPANY, priority 2017, dated 2021).

The structures appear in SMILES notation.

As usually defined, the EC50 is the concentration that produces a half-maximal response. A lower EC50 goes with an effect from little substance.

This test has as its target T1, human FXR (Homo sapiens, UniProt Q96RI1).
T1 construct: expressed in transfected cells; host or cells: HEK293 cells stably carrying a 5xGal4-response-element firefly luciferase reporter, transiently transfected with pcDNA3.1-Gal4-FXR
T1 sequence (Q96RI1 262-486 limits assumed): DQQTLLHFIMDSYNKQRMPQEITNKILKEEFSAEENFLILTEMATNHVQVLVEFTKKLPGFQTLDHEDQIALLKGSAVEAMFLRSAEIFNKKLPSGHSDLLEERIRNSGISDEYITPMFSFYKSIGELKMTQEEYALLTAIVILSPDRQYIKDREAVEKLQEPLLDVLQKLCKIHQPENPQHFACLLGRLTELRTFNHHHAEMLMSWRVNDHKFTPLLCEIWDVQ
In words: transient human FXR/Gal4-luciferase reporter assay. It is filed as cell-based. As to conditions: Gal4-hFXR transfected HEK293 reporter cells; relative to 8 μM GW-4064. In short, it runs like this: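 HEK293 cells stably carrying a 5×Gal4-response-element firefly luciferase reporter, transiently transfected overnight with a CMV-driven Gal4 DNA-binding domain/human FXR ligand-binding domain fusion.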
(In general: A reporter such as luciferase makes a cellular process visible.)

With `COc1cncc(F)c1-c1noc(C2CC2)c1C1=CC2(CCN(c3ccc4nc(C(=O)O)cc(C(F)(F)F)c4c3)CC2)C1` [Example 97, 6-(2-(5-Cyclopropyl-3-(3-fluoro-5-methoxypyridin-4-yl)isoxazol-4-yl)-7-azaspiro[3.5]non-1-en-7-yl)-4-(trifluoromethyl)quinoline-2-carboxylic acid], the response was half-maximal at 1940 nM (EC50).

As for `O=C(O)c1cc2ccc(N3CCC4(C=C(c5c(-c6c(Cl)cncc6Cl)noc5C5CC5)C4)CC3)cc2nn1` [Example 55, 7-(2-(5-Cyclopropyl-3-(3,5-dichloropyridin-4-yl)isoxazol-4-yl)-7-azaspiro[3.5]non-1-en-7-yl)cinnoline-3-carboxylic acid], it took 191 nM to reach a half-maximal effect (EC50).

`CCOc1cc(C(=O)O)nc2ccc(N3CCC4(C=C(c5c(C6CCCCC6)noc5C5CC5)C4)CC3)cc12` [Example 167, 6-(2-(3-Cyclohexyl-5-cyclopropylisoxazol-4-yl)-7-azaspiro[3.5]non-1-en-7-yl)-4-ethoxyquinoline-2-carboxylic acid] showed an EC50 of 3100 nM.

The compound `O=C(O)c1cc(OC(F)(F)F)c2nc(N3CCC4(C=C(c5c(-c6c(Cl)cncc6Cl)noc5C5CC5)C4)CC3)sc2c1` [Example 50, 2-(2-(5-Cyclopropyl-3-(3,5-dichloropyridin-4-yl)isoxazol-4-yl)-7-azaspiro[3.5]non-1-en-7-yl)-4-(trifluoromethoxy)benzo[d]thiazole-6-carboxylic acid] gave an EC50 of 11 nM.

Compound `O=C(NS(=O)(=O)C1CC1)c1cc(OC(F)F)c2cc(N3CCC4(C=C(c5c(-c6ncccc6Cl)noc5C5CC5)C4)CC3)ccc2n1` [Example 189, 6-(2-(3-(3-Chloropyridin-2-yl)-5-cyclopropylisoxazol-4-yl)-7-azaspiro[3.5]non-1-en-7-yl)-N-(cyclopropylsulfonyl)-4-(difluoromethoxy)quinoline-2-carboxamide] returned an EC50 of 48 nM.

Consider `O=C(O)c1ccc(N2[C@@H]3CC[C@H]2CC2(C=C(c4c(-c5c(Cl)cccc5Cl)noc4C4CC4)C2)C3)nc1` (mixture of isomers) [Example 12, 6-(3′-(5-Cyclopropyl-3-(2,6-dichlorophenyl)isoxazol-4-yl)-8-azaspiro[bicyclo[3.2.1]octane-3,1′-cyclobutan]-2′-en-8-yl)nicotinic acid], for which the concentration giving a half-maximal response (EC50) worked out at 182 nM.

Regarding `O=C(O)c1cccc(OC2CCC3(CC2)CC(O)(c2c(-c4c(Cl)cccc4Cl)noc2C2CC2)C3)c1` (stereo not shown) [Example 207, 3-((2-(5-Cyclopropyl-3-(2,6-dichlorophenyl)isoxazol-4-yl)-2-hydroxyspiro[3.5]nonan-7-yl)oxy)benzoic acid], the 50% effective concentration (EC50) is 4470 nM.

In turn, `O=C(O)c1cc(C(F)(F)F)c2cc(N3CCC4(C=C(c5c(C(F)F)cnn5-c5ccccc5C(F)(F)F)C4)CC3)ccc2n1` [Example 214, 6-(2-(4-(Difluoromethyl)-1-(2-(trifluoromethyl)phenyl)-1H-pyrazol-5-yl)-7-azaspiro[3.5]non-1-en-7-yl)-4-(trifluoromethyl)quinoline-2-carboxylic acid] displayed an EC50 of 26 nM.

`O=C(O)c1ccc2nc(N3CCC4(C=C(c5c(-c6c(Cl)cncc6Cl)noc5C5CC5)C4)CC3)sc2n1` [Example 62, 2-(2-(5-Cyclopropyl-3-(3,5-dichloropyridin-4-yl)isoxazol-4-yl)-7-azaspiro[3.5]non-1-en-7-yl)thiazolo[5,4-b]pyridine-5-carboxylic acid] came in with a concentration for a half-maximal effect (EC50) of 24 nM.

The compound `Cc1cccc(Cl)c1-c1noc(C2CC2)c1C1=CC2(CCN(c3ccc4nc(C(=O)O)cc(C(F)(F)F)c4c3)CC2)C1` [Example 89, 6-(2-(3-(2-Chloro-6-methylphenyl)-5-cyclopropylisoxazol-4-yl)-7-azaspiro[3.5]non-1-en-7-yl)-4-(trifluoromethyl)quinoline-2-carboxylic acid] yielded a concentration for a half-maximal effect (EC50) of 202 nM.

Consider `Cn1cc(C(=O)O)c2ccc(N3CCC4(C=C(c5c(C6CCCCC6)noc5C5CC5)C4)CC3)cc21` [Example 168, 6-(2-(3-Cyclohexyl-5-cyclopropylisoxazol-4-yl)-7-azaspiro[3.5]non-1-en-7-yl)-1-methyl-1H-indole-3-carboxylic acid], for which the concentration for a half-maximal effect (EC50) was found to be 3970 nM.

`CC(C)(C)OC(=O)N1CCC2(CC1)COC(c1c(-c3c(Cl)cccc3Cl)noc1C1CC1)O2` (racemic) [(±)-tert-Butyl 2-(5-cyclopropyl-3-(2,6-dichlorophenyl)isoxazol-4-yl)-1,3-dioxa-8-azaspiro[4.5]decane-8-carboxylate] came in with a half-maximal effective concentration (EC50) of 4800 nM.

In turn, `CCOc1cc(C(=O)O)nc2ccc(N3CCC4(C=C(c5c(-c6ccccc6OC(F)(F)F)noc5C5CC5)C4)CC3)cc12` [Example 113, 6-(2-(5-Cyclopropyl-3-(2-(trifluoromethoxy)phenyl)isoxazol-4-yl)-7-azaspiro[3.5]non-1-en-7-yl)-4-ethoxyquinoline-2-carboxylic acid] returned an EC50 of 116 nM.

`O=C(NS(=O)(=O)C1CC1)c1cc(OC(F)F)c2cc(N3CCC4(C=C(c5c(-c6cnccc6C(F)(F)F)noc5C5CC5)C4)CC3)ccc2n1` [Example 188, 6-(2-(5-Cyclopropyl-3-(4-(trifluoromethyl)pyridin-3-yl)isoxazol-4-yl)-7-azaspiro[3.5]non-1-en-7-yl)-N-(cyclopropylsulfonyl)-4-(difluoromethoxy)quinoline-2-carboxamide]: the EC50 is 43 nM.

Compound `O=C(O)c1ccc(N2CCC3(C=C(c4c(C(F)F)cnn4-c4ccccc4OC(F)(F)F)C3)CC2)nc1` [Example 218, 6-(2-(4-(Difluoromethyl)-1-(2-(trifluoromethoxy)phenyl)-1H-pyrazol-5-yl)-7-azaspiro[3.5]non-1-en-7-yl)nicotinic acid] showed an EC50 of 1080 nM.

Turning to `Cc1cc(C(=O)O)cnc1N1CCC2(C=C(c3c(-c4c(Cl)cccc4Cl)noc3C3CC3)C2)CC1` [Example 121, 6-(2-(5-Cyclopropyl-3-(2,6-dichlorophenyl)isoxazol-4-yl)-7-azaspiro[3.5]non-1-en-7-yl)-5-methylnicotinic acid], the EC50 turned out to be 2590 nM.

Consider `CC(C)c1onc(-c2c(Cl)cccc2Cl)c1C1=CC2(CCN(c3nc4c(F)cc(C(=O)O)cc4s3)CC2)C1` [Example 49, 2-(2-(3-(2,6-Dichlorophenyl)-5-isopropylisoxazol-4-yl)-7-azaspiro[3.5]non-1-en-7-yl)-4-fluorobenzo[d]thiazole-6-carboxylic acid], for which the EC50 is 57 nM.

As for `O=C(O[C@@H]1O[C@H](C(=O)O)[C@@H](O)[C@H](O)[C@H]1O)c1cc(C(F)(F)F)c2cc(N3CCC4(C=C(c5c(-c6c(Cl)cncc6Cl)noc5C5CC5)C4)CC3)ccc2n1` [Example 224, (2S,3S,4S,5R,6S)-6-((6-(2-(5-Cyclopropyl-3-(3,5-dichloropyridin-4-yl)isoxazol-4-yl)-7-azaspiro[3.5]non-1-en-7-yl)-4-(trifluoromethyl)quinoline-2-carbonyl)oxy)-3,4,5-trihydroxytetrahydro-2H-pyran-2-carboxylic acid], the EC50 worked out at 73 nM.

Compound `O=C(O)c1cc(F)c2nc(N3C4CCC3CC3(CC(c5c(-c6c(Cl)cccc6Cl)noc5C5CC5)C3)C4)sc2c1` (stereo not shown) [Example 15, 2-(3′-(5-Cyclopropyl-3-(2,6-dichlorophenyl)isoxazol-4-yl)-8-azaspiro[bicyclo[3.2.1]octane-3,1′-cyclobutan]-8-yl)-4-fluorobenzo[d]thiazole-6-carboxylic acid] showed a 50% effective concentration (EC50) of 301 nM.

Consider `O=C(NC1CC1)c1cc(F)c2nc(N3CCC4(C=C(c5c(-c6c(Cl)cncc6Cl)noc5C5CC5)C4)CC3)sc2c1` [Example 201, N-Cyclopropyl-2-(2-(5-cyclopropyl-3-(3,5-dichloropyridin-4-yl)isoxazol-4-yl)-7-azaspiro[3.5]non-1-en-7-yl)-4-fluorobenzo[d]thiazole-6-carboxamide], for which a half-maximal effect (EC50) was put at 150 nM.

Take `O=C(O)c1cc(C(F)(F)F)c2cc(N3CCC4(C=C(c5c(C6CCCCC6)noc5C5CC5)C4)CC3)ccc2n1` [Example 98, 6-(2-(3-Cyclohexyl-5-cyclopropylisoxazol-4-yl)-7-azaspiro[3.5]non-1-en-7-yl)-4-(trifluoromethyl)quinoline-2-carboxylic acid]: a half-maximal effect (EC50) was put at 1720 nM.

For `O=C(O)c1ccc(N2CCC3(C=C(c4c(-c5ncccc5Cl)noc4C4CC4)C3)CC2)nc1` [Example 171, 6-(2-(3-(3-Chloropyridin-2-yl)-5-cyclopropylisoxazol-4-yl)-7-azaspiro[3.5]non-1-en-7-yl)nicotinic acid], the concentration giving a half-maximal response (EC50) turned out to be 1870 nM.

In turn, `O=C(O)c1cc(F)c2nc(N3[C@@H]4CC[C@H]3CC3(COC(c5c(-c6c(Cl)cccc6Cl)noc5C5CC5)O3)C4)sc2c1` (stereo partly drawn) [Example 41, 2-((1R,5S)-2′-(5-cyclopropyl-3-(2,6-dichlorophenyl)isoxazol-4-yl)-8-azaspiro[bicyclo[3.2.1]octane-3,4′-[1,3]dioxolan]-8-yl)-4-fluorobenzo[d]thiazole-6-carboxylic acid] registered an EC50 of 1700 nM.

`CS(=O)(=O)NC(=O)c1cc(OC(F)F)c2cc(N3CCC4(C=C(c5c(-c6cccnc6C(F)(F)F)noc5C5CC5)C4)CC3)ccc2n1` [Example 192, 6-(2-(5-Cyclopropyl-3-(2-(trifluoromethyl)pyridin-3-yl)isoxazol-4-yl)-7-azaspiro[3.5]non-1-en-7-yl)-4-(difluoromethoxy)-N-(methylsulfonyl)quinoline-2-carboxamide]: the 50% effective concentration (EC50) was determined as 238 nM.

Compound `CNC(=O)c1cc(F)c2nc(N3CCC4(C=C(c5c(-c6c(Cl)cncc6Cl)noc5C5CC5)C4)CC3)sc2c1` [Example 198, 2-(2-(5-Cyclopropyl-3-(3,5-dichloropyridin-4-yl)isoxazol-4-yl)-7-azaspiro[3.5]non-1-en-7-yl)-4-fluoro-N-methylbenzo[d]thiazole-6-carboxamide] yielded an EC50 of 311 nM.
